Results: the NIST ThermoML archive (doi:10.1016/j.tca.2016.07.005)
± gives the expanded uncertainty stated by the source.

Key:
[1] = 101.3 kPa, Liquid; for viscosity: Concentric cylinders viscometry; for mass density: Vibrating tube method
[2] = xn = mol fraction of the nth substance listed; details: 101.3 kPa, Liquid, x1 = 1; for viscosity: Concentric cylinders viscometry; for mass density: Vibrating tube method

SMILES | viscosity ([1]; 298.15 K) [mPa·s] | mass density ([1]; 298.15 K) [kg/m3] | viscosity ([1]; 303.15 K) [mPa·s] | mass density ([1]; 303.15 K) [kg/m3] | viscosity ([1]; 313.15 K) [mPa·s] | mass density ([1]; 313.15 K) [kg/m3] | viscosity ([1]; 323.15 K) [mPa·s] | mass density ([1]; 323.15 K) [kg/m3] | viscosity ([1]; 333.15 K) [mPa·s] | mass density ([1]; 333.15 K) [kg/m3] | viscosity ([1]; 343.15 K) [mPa·s] | mass density ([1]; 343.15 K) [kg/m3] | viscosity ([1]; 353.15 K) [mPa·s] | mass density ([1]; 353.15 K) [kg/m3] | viscosity ([1]; 363.15 K) [mPa·s] | mass density ([1]; 363.15 K) [kg/m3] | viscosity ([2]; 313.15 K) [mPa·s] | mass density ([2]; 313.15 K) [kg/m3] | viscosity ([2]; 323.15 K) [mPa·s] | mass density ([2]; 323.15 K) [kg/m3] | also measured
O=S1(=O)CCCC1 [sulfolane] | 11.9 ± 1.2 | 1266.4 ± 2 | 10.5 ± 1.1 | 1259.4 ± 2 | 8.1 ± 0.8 | 1251.7 ± 2 | 6.4 ± 0.6 | 1244 ± 2 | 5.2 ± 0.5 | 1235.4 ± 2 | 4.3 ± 0.4 | 1225 ± 2 | 3.7 ± 0.4 | 1215 ± 2 | 3.2 ± 0.3 | 1206 ± 2 | – | – | – | – | –
CCCC[n+]1ccn(C)c1.O=S(=O)([N-]S(=O)(=O)C(F)(F)F)C(F)(F)F + O=S1(=O)CCCC1 | – | – | – | – | – | – | – | – | – | – | – | – | – | – | – | – | 26.7 ± 2.7 | 1421.9 ± 2.1 | 20.1 ± 2 | 1412.4 ± 2.1 | viscosity ([2]; 293.15 K): 64 ± 6.4 mPa·s; mass density ([2]; 293.15 K): 1441.2 ± 2.1 kg/m3; viscosity ([2]; 298.15 K): 49.5 ± 5 mPa·s; mass density ([2]; 298.15 K): 1436.4 ± 2.1 kg/m3; viscosity ([2]; 303.15 K): 39 ± 3.9 mPa·s; mass density ([2]; 303.15 K): 1431.5 ± 2.1 kg/m3; viscosity ([2]; 333.15 K): 15.5 ± 1.6 mPa·s; mass density ([2]; 333.15 K): 1402.9 ± 2.1 kg/m3; viscosity ([2]; 343.15 K): 12.4 ± 1.2 mPa·s; mass density ([2]; 343.15 K): 1393.5 ± 2.1 kg/m3
OCC(O)CO [glycerol] + O=S1(=O)CCCC1 | – | – | – | – | – | – | – | – | – | – | – | – | – | – | – | – | 303 ± 31 | 1249 ± 2 | 139.3 ± 14 | 1242.4 ± 2 | viscosity ([2]; 333.15 K): 85.5 ± 8.6 mPa·s; mass density ([2]; 333.15 K): 1235.7 ± 2 kg/m3; viscosity ([2]; 343.15 K): 50.5 ± 5.1 mPa·s; mass density ([2]; 343.15 K): 1228.9 ± 2 kg/m3; viscosity ([2]; 353.15 K): 31.2 ± 3.1 mPa·s; mass density ([2]; 353.15 K): 1221.9 ± 2 kg/m3; viscosity ([2]; 363.15 K): 19.9 ± 2 mPa·s; mass density ([2]; 363.15 K): 1214.8 ± 2 kg/m3
CCCC[n+]1ccn(C)c1.O=S(=O)([N-]S(=O)(=O)C(F)(F)F)C(F)(F)F | 49.5 ± 5 | 1436.4 ± 2.1 | 39 ± 3.9 | 1431.5 ± 2.1 | 26.7 ± 2.7 | 1421.9 ± 2.1 | 20.1 ± 2 | 1412.4 ± 2.1 | 15.5 ± 1.6 | 1402.9 ± 2.1 | 12.4 ± 1.2 | 1393.5 ± 2.1 | – | – | – | – | – | – | – | – | viscosity ([1]; 293.15 K): 64 ± 6.4 mPa·s; mass density ([1]; 293.15 K): 1441.2 ± 2.1 kg/m3
OCC(O)CO [glycerol] | – | – | – | – | 303 ± 31 | 1249 ± 2 | 139.3 ± 14 | 1242.4 ± 2 | 85.5 ± 8.6 | 1235.7 ± 2 | 50.5 ± 5.1 | 1228.9 ± 2 | 31.2 ± 3.1 | 1221.9 ± 2 | 19.9 ± 2 | 1214.8 ± 2 | – | – | – | – | –
